The source of these data is patent US20090312396A1, “METHODS FOR CANCER TREATMENT USING TAK1 INHIBITORS” (AstraZeneca AB, priority 2006, published 2009).

Read-outs that look alike come from different tables or passages of the source.

In one experiment the target is T1, TAK1 (Homo sapiens, UniProt O43318).
T1 sequence (O43318 1-606): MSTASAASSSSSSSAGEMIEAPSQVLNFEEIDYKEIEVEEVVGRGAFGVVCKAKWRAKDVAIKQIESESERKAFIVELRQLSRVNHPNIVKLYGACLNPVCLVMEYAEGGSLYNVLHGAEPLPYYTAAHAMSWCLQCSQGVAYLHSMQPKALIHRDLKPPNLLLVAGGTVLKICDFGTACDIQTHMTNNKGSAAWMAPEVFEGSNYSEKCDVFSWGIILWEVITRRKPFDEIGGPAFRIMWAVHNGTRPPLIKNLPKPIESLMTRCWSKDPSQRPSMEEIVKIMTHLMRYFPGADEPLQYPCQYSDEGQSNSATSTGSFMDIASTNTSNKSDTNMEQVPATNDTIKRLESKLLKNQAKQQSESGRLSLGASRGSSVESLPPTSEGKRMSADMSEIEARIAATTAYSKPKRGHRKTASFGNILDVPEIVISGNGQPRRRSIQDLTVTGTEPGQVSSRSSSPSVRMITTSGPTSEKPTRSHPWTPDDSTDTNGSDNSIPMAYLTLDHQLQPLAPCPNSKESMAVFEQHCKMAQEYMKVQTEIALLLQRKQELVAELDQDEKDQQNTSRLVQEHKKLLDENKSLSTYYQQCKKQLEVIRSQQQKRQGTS
T1 sequence (Q15750 1-504 partner): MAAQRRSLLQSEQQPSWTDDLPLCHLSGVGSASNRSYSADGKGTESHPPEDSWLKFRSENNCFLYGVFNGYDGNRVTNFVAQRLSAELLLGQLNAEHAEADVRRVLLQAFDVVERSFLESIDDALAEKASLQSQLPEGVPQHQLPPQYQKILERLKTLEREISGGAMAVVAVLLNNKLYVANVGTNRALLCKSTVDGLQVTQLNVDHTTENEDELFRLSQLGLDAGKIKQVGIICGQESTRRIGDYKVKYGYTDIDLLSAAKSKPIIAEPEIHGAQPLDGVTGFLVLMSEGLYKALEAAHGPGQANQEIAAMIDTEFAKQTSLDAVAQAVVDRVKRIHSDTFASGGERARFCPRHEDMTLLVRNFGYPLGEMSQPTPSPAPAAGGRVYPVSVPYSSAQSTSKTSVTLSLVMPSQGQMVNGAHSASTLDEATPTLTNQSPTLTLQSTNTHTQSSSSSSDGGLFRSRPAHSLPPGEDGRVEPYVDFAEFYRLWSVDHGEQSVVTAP
Description: TAK1 enzyme inhibition. Format: biochemical. Conditions: Table 4; read-out: TAK1 pIC50 (enzyme) (converted).

The subject of another experiment is ARH77. Briefly: AlamarBlue proliferation assay, GI50. Conditions: Homo sapiens, ARH-77, 72 hours. It counts as cell-based. Here is the method: (§1) The TAK1 inhibitors are known in the art (see for example, WO 2003010158, WO 2003010163 and WO2004063186 the disclosures of which are incorporated by reference herein). All cell lines were plated at 10,000 cells/well in flat-bottomed 96 well plates and dosed with test compounds in triplicate over a 10 point dosing range from 0 to 30 μmolesL^−1. All cell lines were incubated with test compounds for a total of 72 hours. Background levels were determined for a control (undosed) plate within 2 hours of dosing test compounds. Following the dosing period, the extent of proliferation was measured by adding 1/10 (vol/vol) AlamarBlue reagent to every well and incubating the plates for a further 4 hours. The reaction was stopped by the addition of SDS to a final concentration of 0.1%. Fluorescence was measured at 545 nm (excitation) and 600 nm (emission). Growth inhibition 50 (GI50) values were determined for each test compound across the panel.
(In general: Resazurin is reduced to fluorescent resorufin, in cell work by metabolically active cells.)

In a further experiment the test system is DOHH2. Briefly: AlamarBlue proliferation assay, GI50. It counts as cell-based. The note with it: Homo sapiens, DOHH-2, 72 hours. As for the experimental part:
as §1

In another experiment the test system is HEL92.1.7. Briefly: AlamarBlue proliferation assay, GI50. It counts as cell-based. The note with it: Homo sapiens, HEL 92.1.7, 72 hours, Table 4, read-out: GI50 HEL92.1.7 Erythroleukemia. As for the experimental part: as §1
Another experiment deals with Jurkat. Briefly: AlamarBlue proliferation assay, GI50. It counts as cell-based. Conditions: Homo sapiens, 72 hours, Table 4, read-out: GI50 Jurkat T-ALL. Here is the method: as §1
For another experiment, the system named is KG1a. Description: AlamarBlue proliferation assay, GI50. Format: cell-based. Conditions: Homo sapiens, KG-1a, 72 hours, Table 4, read-out: GI50 KG1a AML. Here is the method: as §1
For the next experiment, the system named is Karpas231. Description: AlamarBlue proliferation assay, GI50. Conditions: Homo sapiens, 72 hours. It counts as cell-based. Here is the method: as §1
In the next experiment the test system is MEC1. Briefly: AlamarBlue proliferation assay, GI50. Conditions: Homo sapiens, 72 hours. It counts as cell-based. Here is the method:
as §1

The next experiment deals with OCI-LY19. Briefly: AlamarBlue proliferation assay, GI50. Format: cell-based. The note with it: Homo sapiens, 72 hours. As for the experimental part:
as §1

For the next experiment, the system named is SUDHL4. Description: AlamarBlue proliferation assay, GI50. It counts as cell-based. The note with it: Homo sapiens, SU-DHL-4, 72 hours. Here is the method: as §1
In another experiment the test system is WSU-NHL. Description: AlamarBlue proliferation assay, GI50. Format: cell-based. The note with it: Homo sapiens, 72 hours, Table 4, read-out: GI50 WSU-NHL B-NHL. Here is the method:
as §1

In a further experiment the test system is Raji. Description: AlamarBlue proliferation assay, GI50. Format: cell-based, human. The note with it: Homo sapiens, Raji, 72 hours, Table 4, read-out: GI50 Raji Burkitts Lymphoma. Here is the method: as §1
For experiment [1], the system named is Lymphoma cell lines carrying the t(14;18) chromosomal translocation. Briefly: AlamarBlue proliferation assay, Example 2. Format: cell-based. The note with it: t(14;18) lymphoma cell lines, 72 hours, 0 to 30 μmoles/L, FIG. 3. As for the experimental part:
The chemical name of the compound is 3-[(aminocarbonyl)amino]-5-(4-{[4-(2-methoxyethyl)piperazin-1-yl]methyl}phenyl)thiophene-2-carboxamide.
More specifically, cell lines (OCI-LY19, DOHH2, Karpas231, WSU-NHL and SUDHL4 carry the t(14;18) translocation) were plated at 10,000 cells/well in flat-bottomed 96 well plates and dosed with test compounds in triplicate over a 10 point dosing range from 0 to 30 μmolesL^−1. All cell lines were incubated with test compounds for a total of 72 hours. Background levels were determined for a control (undosed) plate within 2 hours of dosing test compounds. Following the dosing period, the extent of proliferation was measured by adding 1/10 (vol/vol) AlamarBlue reagent to every well and incubating the plates for a further 4 hours. The reaction was stopped by the addition of SDS to a final concentration of 0.1%. Fluorescence was measured at 545 nm (excitation) and 600 nm (emission). GI50 values were determined for each test compound across the panel.

A further experiment deals with AM0-1. Briefly: AlamarBlue proliferation assay, GI50. The note with it: Homo sapiens, 72 hours, Table 8, read-out: GI50 AM0-1 plasmacytoma. It counts as cell-based. As for the experimental part: as §1
(§2) The experiments to generate the results for both Tables 5 and 6 were performed as described above.

The test system of another experiment is IM-9. Briefly: AlamarBlue proliferation assay, GI50. Conditions: Homo sapiens, 72 hours, Table 8, read-out: GI50 IM-9 B lymphoblastoid. Format: cell-based. As for the experimental part: as §1, §2
A further experiment relates to JEKO-1. Description: AlamarBlue proliferation assay, GI50. It counts as cell-based. The note with it: Homo sapiens, 72 hours, Table 7, read-out: GI50 JEKO-1 MCL. As for the experimental part:
as §1, §2

In the next experiment the test system is JJN-3. Description: AlamarBlue proliferation assay, GI50. Format: cell-based. Conditions: Homo sapiens, 72 hours, Table 8, read-out: GI50 JJN-3 plasma cell leukemia. Here is the method:
as §1, §2

The test system of a further experiment is JVM-3. Briefly: AlamarBlue proliferation assay, GI50. It counts as cell-based. The note with it: Homo sapiens, 72 hours, Table 7, read-out: GI50 JVM-3 B-PLL. As for the experimental part: as §1, §2
The next experiment relates to L-363. Briefly: AlamarBlue proliferation assay, GI50. The note with it: Homo sapiens, 72 hours, Table 8, read-out: GI50 L-363 plasma cell leukemia. It counts as cell-based. As for the experimental part: as §1, §2
The subject of another experiment is MOLP-8. Description: AlamarBlue proliferation assay, GI50. It counts as cell-based. The note with it: Homo sapiens, 72 hours, Table 8, read-out: GI50 MOLP-8 Multiple myeloma. As for the experimental part:
as §1, §2

The next experiment concerns RPMI-8226. Description: AlamarBlue proliferation assay, GI50. The note with it: Homo sapiens, 72 hours, Table 8, read-out: GI50 RPMI-8226 M.M. It counts as cell-based. Here is the method: as §1, §2
In the next experiment the test system is WSU DLCL2. Description: AlamarBlue proliferation assay, GI50. It counts as cell-based. The note with it: Homo sapiens, WSUDLCL2, 72 hours, Table 7, read-out: GI50 WSU-DLCL B cell lymphoma. As for the experimental part: as §1, §2
The mark [2] stands for this setting: Table 4, read-out: GI50 ARH77 Plasma cell leukemia.
[3] abbreviates: Table 4, read-out: GI50 DOHH2 FL.
Where [4] appears, read: Table 4, read-out: GI50 Karpas231 B-ALL.
[5] abbreviates: Table 4, read-out: GI50 MEC1 B-CLL.
Where [6] appears, read: Table 4, read-out: GI50 OCI-LY19 DLBCL.
[7] abbreviates: Table 4, read-out: GI50 SUDHL4 DLBCL.

As to `NC(=O)Nc1cc(-c2ccc(CN3CCOCC3)cc2)sc1C(N)=O` [Compound 3, 3-[(aminocarbonyl)amino]-5-[4-(morpholin-4-ylmethyl)phenyl]thiophene-2-carboxamide], the IC50 on TAK1 is 100 nM. In addition, the concentration for 50% growth inhibition (GI50) (usually the concentration that inhibits growth by half) in the experiment with ARH77 (setting [2]) was 480 nM; in the experiment with DOHH2 (setting [3]) it was 175 nM; with HEL92.1.7, 500 nM; in the experiment on Jurkat, > 30000 nM; in the experiment on KG1a, 430 nM; in the experiment with Karpas231 (setting [4]) it was 160 nM. In addition, the GI50 in the experiment on MEC1 (setting [5]) is 630 nM; in the experiment on OCI-LY19 (setting [6]) it was 85 nM; with SUDHL4 (setting [7]), 2720 nM; with WSU-NHL, 420 nM; in the experiment with Raji, > 30000 nM.

In the case of `COCCN1CCN(Cc2ccc(-c3cc(NC(N)=O)c(C(N)=O)s3)cc2)CC1` [TAK1 inhibitor, 3-[(aminocarbonyl)amino]-5-(4-{[4-(2-methoxyethyl)piperazin-1-yl]methyl}phenyl)thiophene-2-carboxamide], the “sensitivity of cell lines to TAK1 inhibitor” value in experiment [1] is “sensitive”.

For the compound `NC(=O)Nc1sc(-c2ccc(CN3CCOCC3)cc2)cc1C(N)=O` [Compound 1, 2-[(aminocarbonyl)amino]-5-[4-(morpholin-4-ylmethyl)phenyl]thiophene-3-carboxamide], on TAK1, the IC50 was 126 nM. Also, the GI50 in the experiment with ARH77 (setting [2]) was 1170 nM; with DOHH2 (setting [3]), 127 nM; in the experiment on HEL92.1.7 it was 730 nM; with Jurkat, 15900 nM; in the experiment on KG1a, 450 nM; in the experiment with Karpas231 (setting [4]), 300 nM. In addition, the GI50 in the experiment with MEC1 (setting [5]) is 1340 nM; with OCI-LY19 (setting [6]), 124 nM; in the experiment with SUDHL4 (setting [7]), 6390 nM; with WSU-NHL it was 370 nM; in the experiment on Raji, 15200 nM.

As to `CC(c1ccc(-c2cc(C(N)=O)c(NC(N)=O)s2)cc1)N1CCCCC1` (stereo not shown) [Compound 2, 2-[(aminocarbonyl)amino]-5-[4-(1-piperidin-1-ylethyl)phenyl]thiophene-3-carboxamide], the IC50 at TAK1 was 50.1 nM. In addition, the GI50 in the experiment on ARH77 (setting [2]) amounted to 250 nM; in the experiment with DOHH2 (setting [3]), 14 nM; in the experiment with HEL92.1.7, 170 nM; in the experiment with Jurkat it was 4390 nM; with KG1a, 400 nM; with Karpas231 (setting [4]) it was 140 nM. The GI50 amounted to 160 nM in the experiment on MEC1 (setting [5]); 5 nM with OCI-LY19 (setting [6]); 2420 nM in the experiment with SUDHL4 (setting [7]); 250 nM in the experiment on WSU-NHL; 3500 nM in the experiment with Raji.

`COc1cc(O)c2c(c1)/C=C/C[C@H](O)[C@H](O)C(=O)/C=C\C[C@H](C)OC2=O` [LL-Z-1640-2, (3S,5Z,8S,9S,11E)-8,9,16-trihydroxy-14-methoxy-3-methyl-3,4,9,10-tetrahydro-1H-2-benzoxacyclotetradecine-1,7(8H)-dione, reference compound]: the GI50 amounted to 1240 nM in the experiment with ARH77 (Table 8, read-out: GI50 ARH-77 plasma cell leukemia); 390 nM with DOHH2 (Table 7, read-out: GI50 DOHH2 FL); 950 nM in the experiment on Karpas231 (Table 7, read-out: GI50 KARPAS231 B-ALL); 730 nM with MEC1 (Table 7, read-out: GI50 MEC1 B-CLL); 230 nM with OCI-LY19 (Table 7, read-out: GI50 OCI-LY19 DLBCL); 1640 nM in the experiment on SUDHL4 (Table 7, read-out: GI50 SUDHL4 DLBCL). The GI50 with AM0-1 is 570 nM; with IM-9 it was 20 nM; with JEKO-1, 70 nM; with JJN-3, ≥ 32400 nM; in the experiment on JVM-3, 710 nM; in the experiment on L-363, ≥ 32400 nM. For the same compound, the GI50 in the experiment on MOLP-8 is 10400 nM; with RPMI-8226, 1410 nM; in the experiment on WSU DLCL2 it was 20 nM.
